The values that follow come from patent US20040138239A1, “Compositions and methods for targeting cerebral circulation and treatment of headache” (priority 2004, published 2004).

One assay concerns fever. Conditions: oral delivery; cited from earlier work.
Another assay relates to headache. As to the kind of experiment: Inventors' observation: topical NSAID formulations in treatment of a headache. Conditions: applied to tender spot or area superficial to carotid, temporal and/or vertebral artery. In kind it is in vivo, human. An excerpt: Especially preferred compositions include a xanthine derivative in a concentration of about 4% (wt) to 70% (wt) and ketoprofen in a concentration of about 0.5% (wt) to 50% (wt). With respect to the xanthine derivative, the same considerations as described above apply. Furthermore, such particularly preferred compositions may be formulated in a lecithin-containing formulation or a pluronic-lecithin-organogel formulation (supra). It should be especially recognized, that compositions including a xanthine derivative or an NSAID have generally been described in the art. However, the inventors observed that formulations including an NSAID other than Ketoprofen generally fail to provide relief in treatment of a headache, when topically applied to a person (either to a tender spot, or to an area superficial to a carotid artery, a temporal artery and/or a vertebral artery). It is therefore a surprising result that Ketoprofen is the only NSAID effective in treatment of a headache when used in protocols according to the inventive subject matter (see also examples). While not wishing to be bound by a particular hypothesis or theory, the inventors contemplate that the effect of Ketoprofen may be at least in part mediated by a muscle-relaxant effect rather than via a suppressive effect in inflammation.

Regarding `CC(=O)Nc1ccc(O)cc1` [Acetaminophen], the “time to achieve sufficient plasma concentration to lower the fever” value in the assay on fever is “at least 20 minutes”.
Consider `CC(C(=O)O)c1cccc(C(=O)c2ccccc2)c1` (centres unmarked) [Ketoprofen, 2-(meta-benzoylphenyl)pro-pionic acid], for which the “relief in treatment of a headache when topically applied” value with headache was “effective”.
